Reference: PubChem BioAssay AID1845216 (Molecular Pharmacology Branch, DTP, NCI, 2023)
“And” between values parts separate entries of the source, which are not always exact repeats. Equal values may be shown once.

Test system: SW 982 tumor spheroid viability
Test: Anticancer human tumor SW 982 cell line growth inhibition;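 note: spheroids exposed to compound for 7 days before readout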
Details: spheroids with HUVEC and MSC; for viability, T/C: stronger effect = lower value; active = viability on the fitted dose curve at most 10% of control; inactive = the rest
Outline: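 Complex spheroids of malignant cells with endothelial cells and mesenchymal stem cells; agents alone or combined, from near clinical Cmax (or 10 microM if unknown) down in half-log steps, 0.25% DMSO final.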

[1] = curve of first compound, second compound 1 µM
[2] = curve of first compound, second compound 3.16 µM
[3] = curve of first compound, second compound 10 µM
[4] = curve of first compound, second compound 31.6 µM
[5] = curve of first compound, second compound 100 µM
[6] = second compound 1 µM, first compound 0.0316 µM
[7] = second compound 1 µM, first compound 0.1 µM
[8] = second compound 1 µM, first compound 0.316 µM
[9] = second compound 1 µM, first compound 1 µM
[10] = second compound 1 µM, first compound 3.16 µM
[11] = second compound 1 µM, first compound 10 µM
[12] = second compound 3.16 µM, first compound 0.0316 µM
[13] = second compound 3.16 µM, first compound 0.1 µM
[14] = second compound 3.16 µM, first compound 0.316 µM
[15] = second compound 3.16 µM, first compound 1 µM
[16] = second compound 3.16 µM, first compound 3.16 µM
[17] = second compound 3.16 µM, first compound 10 µM
[18] = second compound 10 µM, first compound 0.0316 µM
[19] = second compound 10 µM, first compound 0.1 µM
[20] = second compound 10 µM, first compound 0.316 µM
[21] = second compound 10 µM, first compound 1 µM
[22] = second compound 10 µM, first compound 3.16 µM
[23] = second compound 10 µM, first compound 10 µM
[24] = second compound 31.6 µM, first compound 0.0316 µM
[25] = second compound 31.6 µM, first compound 0.1 µM
[26] = second compound 31.6 µM, first compound 0.316 µM
[27] = second compound 31.6 µM, first compound 1 µM
[28] = second compound 31.6 µM, first compound 3.16 µM
[29] = second compound 31.6 µM, first compound 10 µM
[30] = second compound 100 µM, first compound 0.0316 µM
[31] = second compound 100 µM, first compound 0.1 µM
[32] = second compound 100 µM, first compound 0.316 µM
[33] = second compound 100 µM, first compound 1 µM
[34] = second compound 100 µM, first compound 3.16 µM
[35] = second compound 100 µM, first compound 10 µM

COc1cc(C)[nH]c(=O)c1CN1CCc2c(Cl)cc(C(OC)C3COC3)c(Cl)c2C1=O (centres undefined) + Cn1nnc2c(C(N)=O)ncn2c1=O
> 10 µM: IC50 [1] | IC50 [2] | IC50 [3] | IC50 [4] | IC50 [5]
inactive: viability, T/C [6] 101% | viability, T/C [7] 103% | viability, T/C [8] 103% | viability, T/C [9] 113% | viability, T/C [10] 101% | viability, T/C [11] 99.7% | viability, T/C [12] 94.3% | viability, T/C [13] 92.4% | viability, T/C [14] 96% | viability, T/C [15] 102% | viability, T/C [16] 100% | viability, T/C [17] 93.1% | viability, T/C [18] 81.8% | viability, T/C [19] 83.5% | viability, T/C [20] 86.2% | viability, T/C [21] 88.3% | viability, T/C [22] 85.8% | viability, T/C [23] 78.3% | viability, T/C [24] 71.1% | viability, T/C [25] 71.7% | viability, T/C [26] 70.4% | viability, T/C [27] 78.8% | viability, T/C [28] 70% | viability, T/C [29] 69.1% | viability, T/C [30] 58.6% | viability, T/C [31] 62.3% | viability, T/C [32] 65% | viability, T/C [33] 64.3% | viability, T/C [34] 64.6% | viability, T/C [35] 61.9%

CC(C)n1c(=O)n(C)c2cnc3cc(F)c(-c4ccc(OCCCN5CCCCC5)nc4)cc3c21
5.95 µM and 9.44 µM and 4.93 µM: IC50 (curve of compound)
inactive: viability, T/C (compound 0.0316 µM) 99% and 107% and 96.4% | viability, T/C (compound 0.1 µM) 87.8% and 104% and 101% | viability, T/C (compound 0.316 µM) 91.9% and 96% and 90.8% | viability, T/C (compound 1 µM) 87% and 91.9% and 71.7% | viability, T/C (compound 3.16 µM) 68.2% and 74.7% and 61.6% | viability, T/C (compound 10 µM) 34.8% and 48.2% and 35.8%

COc1ccc([C@@H](O)c2cc(-c3ncnc4cc(N5CCOCC5)ccc34)c(F)cc2Cl)nn1 + CC[C@@]1(O)C(=O)OCc2c1cc1n(c2=O)Cc2cc3c(CN(C)C)c(O)ccc3nc2-1
4.47 µM: IC50 (curve of first compound, second compound 0.003 µM)
0.524 µM: IC50 (curve of first compound, second compound 0.0949 µM)
2.15 µM: IC50 (curve of first compound, second compound 0.00949 µM)
1.19 µM: IC50 (curve of first compound, second compound 0.03 µM)
inactive: viability, T/C (second compound 0.003 µM, first compound 0.0316 µM) 96.9% | viability, T/C (second compound 0.003 µM, first compound 0.1 µM) 95.5% | viability, T/C (second compound 0.003 µM, first compound 0.316 µM) 92.1% | viability, T/C (second compound 0.003 µM, first compound 1 µM) 90.9% | viability, T/C (second compound 0.003 µM, first compound 3.16 µM) 59.8% | viability, T/C (second compound 0.003 µM, first compound 10 µM) 27.1% | viability, T/C (second compound 0.00949 µM, first compound 0.0316 µM) 86.4% | viability, T/C (second compound 0.00949 µM, first compound 0.1 µM) 78.5% | viability, T/C (second compound 0.00949 µM, first compound 0.316 µM) 80.7% | viability, T/C (second compound 0.00949 µM, first compound 1 µM) 72.2% | viability, T/C (second compound 0.00949 µM, first compound 3.16 µM) 38.9% | viability, T/C (second compound 0.00949 µM, first compound 10 µM) 15% | viability, T/C (second compound 0.03 µM, first compound 0.0316 µM) 73.8% | viability, T/C (second compound 0.03 µM, first compound 0.1 µM) 76.2% | viability, T/C (second compound 0.03 µM, first compound 0.316 µM) 70.3% | viability, T/C (second compound 0.03 µM, first compound 1 µM) 53.9% | viability, T/C (second compound 0.03 µM, first compound 3.16 µM) 26.8% | viability, T/C (second compound 0.03 µM, first compound 10 µM) 12.8% | viability, T/C (second compound 0.0949 µM, first compound 0.0316 µM) 70.6% | viability, T/C (second compound 0.0949 µM, first compound 0.1 µM) 68.8% | viability, T/C (second compound 0.0949 µM, first compound 0.316 µM) 60.5% | viability, T/C (second compound 0.0949 µM, first compound 1 µM) 36.6% | viability, T/C (second compound 0.0949 µM, first compound 3.16 µM) 18.5% | viability, T/C (second compound 0.0949 µM, first compound 10 µM) 12.8% | viability, T/C (second compound 0.3 µM, first compound 0.0316 µM) 52.2% | viability, T/C (second compound 0.3 µM, first compound 0.1 µM) 55.7% | viability, T/C (second compound 0.3 µM, first compound 0.316 µM) 40.6% | viability, T/C (second compound 0.3 µM, first compound 1 µM) 23.2% | viability, T/C (second compound 0.3 µM, first compound 3.16 µM) 13.1% | viability, T/C (second compound 0.3 µM, first compound 10 µM) 10.2%
0.13 µM: IC50 (curve of first compound, second compound 0.3 µM)

Cc1cc(C)c(CNC(=O)c2cc(-c3ccc(CN4CCOCC4)cc3)cc3c2cnn3C2CCCC2)c(=O)[nH]1 + Cn1nnc2c(C(N)=O)ncn2c1=O
> 10 µM: IC50 [1] | IC50 [2] | IC50 [3] | IC50 [4] | IC50 [5]
inactive: viability, T/C [6] 102% | viability, T/C [7] 104% | viability, T/C [8] 103% | viability, T/C [9] 103% | viability, T/C [10] 92.1% | viability, T/C [11] 91.2% | viability, T/C [12] 88.4% | viability, T/C [13] 99.2% | viability, T/C [14] 101% | viability, T/C [15] 96.6% | viability, T/C [16] 92.3% | viability, T/C [17] 70.6% | viability, T/C [18] 86.7% | viability, T/C [19] 82.6% | viability, T/C [20] 81.3% | viability, T/C [21] 82.8% | viability, T/C [22] 82.2% | viability, T/C [23] 53.4% | viability, T/C [24] 73.8% | viability, T/C [25] 69% | viability, T/C [26] 74.9% | viability, T/C [27] 73.5% | viability, T/C [28] 74.4% | viability, T/C [29] 58.7% | viability, T/C [30] 58.9% | viability, T/C [31] 63% | viability, T/C [32] 57.7% | viability, T/C [33] 63.5% | viability, T/C [34] 55.3% | viability, T/C [35] 53.8%

COc1cc2c(cc1O)CCNC21CSC2c3c(OC(C)=O)c(C)c4c(c3C(COC1=O)N1C(O)C3Cc5cc(C)c(OC)c(O)c5C(C21)N3C)OCO4 (centres undefined)
active: viability, T/C (compound 0.003 µM) 0.57% [middle of 10 runs]
0.667 nM [middle of 10 runs]: IC50 (compound alone, run of 12/12/2019)
